The source of these data is paper PMC11995724, “Antibiotic target discovery by integrated phenotypic and activity-based profiling of electrophilic fragments” (Cell chemical biology, 2025).

Structures can show the parent of a compound that is named as a salt.

The series in a line: in vitro. The settings on record: human, hek293t cells.
In the case of `CC(Cl)C(=O)NCC(NS(=O)(=O)N(C)C)C1CCCC1` (stereo not drawn) [7-G16, 2-chloro-N-{2-cyclopentyl-2-[(dimethylsulfamoyl)amino]ethyl}propanamide], the viability – broadly, a read-out of living cells in per cent, often relative to untreated cells – at 48 h, 25 µM was found to be 91.3%.

As to `CC(Cl)C(=O)NCCc1nnnn1-c1ccccc1` (stereo not drawn) [7-G17, 2-chloro-N-[2-(1-phenyl-1H-1,2,3,4-tetrazol-5-yl)ethyl]propanamide], the viability at 48 h, 25 µM was determined as 92.2%.

Turning to `CC(Cl)C(=O)N1C2CCC1CC(O)(Cc1ccc(F)cc1F)C2` (stereo not drawn) [7-G18, 2-chloro-1-{3-[(2,4-difluorophenyl)methyl]-3-hydroxy-8-azabicyclo[3.2.1]octan-8-yl}propan-1-one], the viability at 48 h, 25 µM was 60%.

As for `CC(Cl)C(=O)NCc1ccc(C(=O)Nc2ccc(F)cc2)cc1` (stereo not drawn) [7-G19, 4-[(2-chloropropanamido)methyl]-N-(4-fluorophenyl)benzamide], the viability at 48 h, 25 µM was found to be 76.3%.

On to `Cc1ccccc1N(CC(=O)N1CCCCC1)C(=O)C(C)Cl` (stereo not drawn) [7-G20, 2-chloro-N-(2-methylphenyl)-N-[2-oxo-2-(piperidin-1-yl)ethyl]propanamide], for which the viability at 48 h, 25 µM is 70.7%.

In the case of `CC(Cl)C(=O)NCCn1cccc1` (stereo not drawn) [7-G21, 2-chloro-N-[2-(1H-pyrrol-1-yl)ethyl]propanamide], the viability at 48 h, 25 µM was 87.8%.

`CC(Cl)C(=O)N1CCc2c(nnn2C)C1` (stereo not drawn) [7-G22, 2-chloro-1-{1-methyl-1H,4H,5H,6H,7H-[1,2,3]triazolo[4,5-c]pyridin-5-yl}propan-1-one]: the viability at 48 h, 25 µM worked out at 80.5%.

In the case of `O=C(CCl)NCC1CN(Cc2ccccc2)CC12CCC2` (stereo not drawn) [7-H03, N-({6-benzyl-6-azaspiro[3.4]octan-8-yl}methyl)-2-chloroacetamide hydrochloride], the viability at 48 h, 25 µM is 0.629%.

As to `O=C(CCl)NC1CCN(Cc2cscn2)CC1` [7-H04, 2-chloro-N-{1-[(1,3-thiazol-4-yl)methyl]piperidin-4-yl}acetamide hydrochloride], the viability at 48 h, 25 µM was determined as 0.789%.

In the case of `CC(Cl)C(=O)NC1CCc2cnn(C(C)C)c2C1` (stereo not drawn) [7-H05, 2-chloro-N-[1-(propan-2-yl)-4,5,6,7-tetrahydro-1H-indazol-6-yl]propanamide], the viability at 48 h, 25 µM was found to be 107%.

For the compound `O=C(CCl)NC1CCS(=O)(=O)c2ccc(F)cc21` (stereo not drawn) [7-H06, 2-chloro-N-(6-fluoro-1,1-dioxo-3,4-dihydro-2H-1lambda6-benzothiopyran-4-yl)acetamide], the viability at 48 h, 25 µM turned out to be 1.04%.

Regarding `COc1cc(CC2CN(C(=O)C(C)Cl)C2)cc(OC)c1` (stereo not drawn) [7-H07, 2-chloro-1-{3-[(3,5-dimethoxyphenyl)methyl]azetidin-1-yl}propan-1-one], the viability at 48 h, 25 µM stood at 97.3%.

As for `O=C(CCl)NCc1ccnn1C1CCCC1` [7-H08, 2-chloro-N-[(1-cyclopentyl-1H-pyrazol-5-yl)methyl]acetamide], the viability at 48 h, 25 µM is 0.996%.

As to `Cc1c(C(=O)N2CCN(C(=O)C(C)Cl)CC2)sc2ccccc12` (stereo not drawn) [7-H09, 2-chloro-1-[4-(3-methyl-1-benzothiophene-2-carbonyl)piperazin-1-yl]propan-1-one], the viability at 48 h, 25 µM was found to be 88.8%.

With `O=C(CCl)NCc1ccn(Cc2ccccc2)n1` [7-H10, N-[(1-benzyl-1H-pyrazol-3-yl)methyl]-2-chloroacetamide], the viability at 48 h, 25 µM was 0.654%.

For `CC(Cl)C(=O)N1CCCC1c1nc(-c2ccccc2)c(C(C)C)o1` (stereo not drawn) [7-H11, 2-chloro-1-{2-[4-phenyl-5-(propan-2-yl)-1,3-oxazol-2-yl]pyrrolidin-1-yl}propan-1-one], the viability at 48 h, 25 µM came out at 79.2%.

Regarding `CC(c1ccc(S(N)(=O)=O)cc1)N(C)C(=O)CCl` (stereo not drawn) [7-H12, 2-chloro-N-methyl-N-[1-(4-sulfamoylphenyl)ethyl]acetamide], the viability at 48 h, 25 µM was found to be 0.618%.

In the case of `CC(Cl)C(=O)NC(CC1CCCCC1)c1ncccn1` (stereo not drawn) [7-H13, 2-chloro-N-[2-cyclohexyl-1-(pyrimidin-2-yl)ethyl]propanamide], the viability at 48 h, 25 µM turned out to be 91.2%.

As to `Cc1ccc(N2CCCC2CNC(=O)CCl)cc1` (stereo not drawn) [7-H14, 2-chloro-N-{[1-(4-methylphenyl)pyrrolidin-2-yl]methyl}acetamide], the viability at 48 h, 25 µM is 4.76%.

Turning to `CC(Cl)C(=O)N(C)CCn1c(=O)oc2ccccc21` (stereo not drawn) [7-H15, 2-chloro-N-methyl-N-[2-(2-oxo-2,3-dihydro-1,3-benzoxazol-3-yl)ethyl]propanamide], the viability at 48 h, 25 µM stood at 102%.

For `O=C(CCl)NCCc1c[nH]c2c(F)c(F)c(F)cc12` [7-H16, 2-chloro-N-[2-(5,6,7-trifluoro-1H-indol-3-yl)ethyl]acetamide], the viability at 48 h, 25 µM came out at 1.21%.

In the case of `CC(Cl)C(=O)N1CCC(n2nnc3c2CCCC3)CC1` (stereo not drawn) [7-H17, 2-chloro-1-[4-(4,5,6,7-tetrahydro-1H-1,2,3-benzotriazol-1-yl)piperidin-1-yl]propan-1-one], the viability at 48 h, 25 µM amounted to 90%.

On to `COc1cc(CN(C(=O)CCl)C2CC2)ccc1O` [7-H18, 2-chloro-N-cyclopropyl-N-[(4-hydroxy-3-methoxyphenyl)methyl]acetamide], for which the viability at 48 h, 25 µM turned out to be 0.647%.

With `CC(Cl)C(=O)NCCC1(CO)CC1` (stereo not drawn) [7-H19, 2-chloro-N-{2-[1-(hydroxymethyl)cyclopropyl]ethyl}propanamide], the viability at 48 h, 25 µM stood at 90.1%.

Consider `CCN(Cc1ccc(C(F)(F)F)cc1)C(=O)CCl` [7-H20, 2-chloro-N-ethyl-N-{[4-(trifluoromethyl)phenyl]methyl}acetamide], for which the viability at 48 h, 25 µM was 0.708%.

For `Cc1cc(CC(C)NC(=O)C(C)Cl)n(-c2ccccc2)n1` (stereo not drawn) [7-H21, 2-chloro-N-[1-(3-methyl-1-phenyl-1H-pyrazol-5-yl)propan-2-yl]propanamide], the viability at 48 h, 25 µM was 80.1%.

`COc1cc(C(C)NC(=O)CCl)sn1` (stereo not drawn) [7-H22, 2-chloro-N-[1-(3-methoxy-1,2-thiazol-5-yl)ethyl]acetamide]: the viability at 48 h, 25 µM turned out to be 0.822%.

For `CC(Cl)C(=O)N1CC(OCc2cccc3ccccc23)C1` (stereo not drawn) [7-I03, 2-chloro-1-{3-[(naphthalen-1-yl)methoxy]azetidin-1-yl}propan-1-one], the viability at 48 h, 25 µM stood at 96.3%.

On to `CC(Cl)C(=O)N1CC(Cc2cccs2)C1` (stereo not drawn) [7-I04, 2-chloro-1-{3-[(thiophen-2-yl)methyl]azetidin-1-yl}propan-1-one], for which the viability at 48 h, 25 µM was determined as 88.8%.

In the case of `CC(Cl)C(=O)NCC1=CCCOC1` (stereo not drawn) [7-I05, 2-chloro-N-[(5,6-dihydro-2H-pyran-3-yl)methyl]propanamide], the viability at 48 h, 25 µM amounted to 89.9%.

For the compound `COCc1noc(CN2CCN(C(=O)C(C)Cl)CC2)n1` (stereo not drawn) [7-I06, 2-chloro-1-(4-{[3-(methoxymethyl)-1,2,4-oxadiazol-5-yl]methyl}piperazin-1-yl)propan-1-one], the viability at 48 h, 25 µM is 88.7%.

For `CCOC(=O)c1c2c(nn1C)CCN(C(=O)C(C)Cl)C2` (stereo not drawn) [7-I07, ethyl 5-(2-chloropropanoyl)-2-methyl-2H,4H,5H,6H,7H-pyrazolo[4,3-c]pyridine-3-carboxylate], the viability at 48 h, 25 µM is 92.6%.

For the compound `CC(Cl)C(=O)N1CCN(C)C(c2nc(C3CC3)no2)C1` (stereo not drawn) [7-I08, 2-chloro-1-[3-(3-cyclopropyl-1,2,4-oxadiazol-5-yl)-4-methylpiperazin-1-yl]propan-1-one], the viability at 48 h, 25 µM was 84.4%.

`CC(Cl)C(=O)N1CCCC1c1nc(-c2ccccc2)n[nH]1` (stereo not drawn) [7-I09, 2-chloro-1-[2-(3-phenyl-1H-1,2,4-triazol-5-yl)pyrrolidin-1-yl]propan-1-one]: the viability at 48 h, 25 µM was 86.8%.

Regarding `Cc1ccnc(-c2n[nH]c(C(C)NC(=O)C(C)Cl)n2)c1` (stereo not drawn) [7-I10, 2-chloro-N-{1-[3-(4-methylpyridin-2-yl)-1H-1,2,4-triazol-5-yl]ethyl}propanamide], the viability at 48 h, 25 µM was 71.1%.

Consider `COC1CCN(c2ccc(F)cc2CN(C)C(=O)C(C)Cl)CC1` (stereo not drawn) [7-I11, 2-chloro-N-{[5-fluoro-2-(4-methoxypiperidin-1-yl)phenyl]methyl}-N-methylpropanamide], for which the viability at 48 h, 25 µM worked out at 94.9%.

As to `CC(Cl)C(=O)N1CCN(c2nnnn2-c2ccccc2)CC1` (stereo not drawn) [7-I12, 2-chloro-1-[4-(1-phenyl-1H-1,2,3,4-tetrazol-5-yl)piperazin-1-yl]propan-1-one], the viability at 48 h, 25 µM turned out to be 74.2%.

In the case of `CC(Cl)C(=O)NCc1ccon1` (stereo not drawn) [7-I13, 2-chloro-N-[(1,2-oxazol-3-yl)methyl]propanamide], the viability at 48 h, 25 µM came out at 94.7%.

On to `CC(Cl)C(=O)NCc1noc2ccccc12` (stereo not drawn) [7-I14, N-[(1,2-benzoxazol-3-yl)methyl]-2-chloropropanamide], for which the viability at 48 h, 25 µM turned out to be 77.8%.

Regarding `CC(Cl)C(=O)NC1CCN(S(C)(=O)=O)C1` (stereo not drawn) [7-I15, 2-chloro-N-(1-methanesulfonylpyrrolidin-3-yl)propanamide], the viability at 48 h, 25 µM is 94.9%.

As for `CC(=O)N1CCC(NC(=O)C(C)Cl)c2ccc(F)cc2C1` (stereo not drawn) [7-I16, N-(2-acetyl-8-fluoro-2,3,4,5-tetrahydro-1H-2-benzazepin-5-yl)-2-chloropropanamide], the viability at 48 h, 25 µM came out at 92.3%.

In the case of `CC(Cl)C(=O)NCc1ccn(CC(F)F)n1` (stereo not drawn) [7-I17, 2-chloro-N-{[1-(2,2-difluoroethyl)-1H-pyrazol-3-yl]methyl}propanamide], the viability at 48 h, 25 µM was found to be 88.7%.

`CC(Cl)C(=O)N1CCC(Oc2cnc3ccccc3n2)CC1` (stereo not drawn) [7-I18, 2-chloro-1-[4-(quinoxalin-2-yloxy)piperidin-1-yl]propan-1-one]: the viability at 48 h, 25 µM turned out to be 68.7%.

In the case of `CC(Cl)C(=O)N1CCc2ncccc2C1` (stereo not drawn) [7-I19, 2-chloro-1-(5,6,7,8-tetrahydro-1,6-naphthyridin-6-yl)propan-1-one], the viability at 48 h, 25 µM was 98.1%.

`CC(Cl)C(=O)Nc1ccc(C(=O)N(C)C2CCCN(C)C2)cc1` (stereo not drawn) [7-I20, 4-(2-chloropropanamido)-N-methyl-N-(1-methylpiperidin-3-yl)benzamide]: the viability at 48 h, 25 µM is 76.4%.

Take `CC(Cl)C(=O)NCCc1ccnn1C` (stereo not drawn) [7-I21, 2-chloro-N-[2-(1-methyl-1H-pyrazol-5-yl)ethyl]propanamide]: the viability at 48 h, 25 µM was found to be 92.3%.

For `CC(Cl)C(=O)N1CCN(Cc2ccnn2C)CC1` (stereo not drawn) [7-I22, 2-chloro-1-{4-[(1-methyl-1H-pyrazol-5-yl)methyl]piperazin-1-yl}propan-1-one], the viability at 48 h, 25 µM stood at 99.9%.

In the case of `Cc1csc(C2(NC(=O)CCl)CCOCC2)n1` [7-J03, 2-chloro-N-[4-(4-methyl-1,3-thiazol-2-yl)oxan-4-yl]acetamide], the viability at 48 h, 25 µM amounted to 0.732%.
